Test results reported in patent publication US20250145592A1 (NICO Therapeutics, Inc., priority 2022, published 2025).
Like-named read-outs stand apart in the source and are kept apart here.

Test system: IL-1β secretion in THP-1 cells (NLRP3)
Assay: IL-1β secretion assay in PMA-differentiated THP-1 cells stimulated with LPS and nigericin (ELISA readout)
Format: cell-based
Conditions: IL-1β ELISA
Protocol: Compounds as provided herein were tested in the following assay. Cell culture medium employed contained RPMI 1640 medium (89%), FBS (10%), Pen/Strep (1%), and 2-mercaptoethanol (0.05 mM). Freezing medium was made up of 90% FBS and 10% DMSO. THP-1 cells were removed from the liquid nitrogen and placed into a 37° C. water bath to thaw, until signs of ice dissipated. The cells were then added to 9 mL of warm cell culture medium and centrifuged for 5 minutes at 1000 rpm. The supernatant was discarded, and the cells were resuspended in new cell culture medium. THP-1 cells were then split and cultured in the cell culture medium, being passaged every 2-3 days with the cell density will be maintained between 5×10^5 and 1.5×10^6 viable cells/mL.
To freeze, cells were resuspended with fresh freezing medium, adjusting the cell density to 5×10^6 cells/mL. The cell suspension was partitioned into 1 mL aliquots per vial, and the vials were transferred to a −80° C. freezer. After one day at −80° C., the cell vials were transferred to liquid nitrogen freezer for storage.
PMA was dissolved in DMSO to make a stock solution at 5 mg/ml and stored in 10 μl aliquots at −20° C. for single use. PMA is added to normal growth medium. LPS was diluted with 1 mL of water solution to provide a 1 mg/mL stock solution and stored in 15 μl aliquots at −20° C. for single use. Nigericin is diluted in ice cold 100% ethanol to 5 mg/ml (6.7 mM) and stored in 75 μL aliquots at −20° C. for single use. Serum-free media contains RPMI 1640 medium (99%), Pen/Strep (1%), and 2-mercaptoethanol (0.05 mM). The two control conditions used to qualify and normalize test compound dose-response curves were as follows: High Control=25 ng/mL LPS, […], 0.5% DMSO, Low Control=25 ng/mL, LPS, 0.5% DMSO.
THP-1 cells were diluted to provide a suspension at a concentration of 1.0×10^6 cells/mL with the total volume of suspension required to enable the desired number of assay plates. The growth media was supplemented with PMA (5 ng/mL final concentration) and the cells were incubated at 37° C. under a humidified atmosphere of 5% CO2 for 40 h.
All media was carefully aspirated from each culture flask. The cells were washed carefully with 1×DPBS. The cells were then briefly digested with trypsin LE for 5 minutes at 23° C. and immediately resuspended in cell growth media. After resuspension, the cells were centrifuged at 1000 rpm for 3 minutes and the supernatant was discarded. The cells were resuspended in DPBS and once again centrifuged at 1000 rpm for 5 minutes. The supernatant was discarded and the cell pellet was resuspended in serum-free media supplemented with LPS (25 ng/mL final concentration) to enable the distribution of 30K THP-1 cells within 45 μL of media into each well of 384-well PDL-coated plates. The 384-well plates were then incubated at 37° C. under a humidified atmosphere of 5% CO2 for 2 h. Following this period, test compounds were dispensed by Tecan across the desired concentration range with all wells normalized to a final 0.5% DMSO concentration. The plates were then then incubated at 37° C. under a humidified atmosphere of 5% CO2 for 1 h. Following this period, 5 μL of the 5 mg/mL nigericin stock solution was added to each of the appropriate wells and plates were centrifuged at 1000 rpm for 30 seconds. The plates were the immediately reintroduced to the incubator at 37° C. under a humidified atmosphere of 5% CO2 for 2 h. After this time, 35 μL/well of supernatant was collected and transferred into v-bottom plate and centrifuged at 1000 rpm for 1 minute. These supernatant aliquots were analyzed using an IL-Iβ detection kit as described below. If needed, the test samples could be snap frozen and stored at −80° C. until analyzed.
To prepare each ELISA plate, capture antibody (mAb Mt175) was diluted with PBS to a final concentration of […] and then 20 µL of this solution was added to each well of the ELISA plate.
Each plate was allowed to incubate overnight at 4° C. […]

[1] = Homo sapiens, THP-1, Table 3, LPS 25 ng/mL + nigericin, read-out: Activity (IC50 class)
[2] = Homo sapiens, THP-1, Table 4, LPS 25 ng/mL + nigericin, read-out: Activity (IC50)

SMILES	IC50 (Table 3, LPS 25 ng/mL + nigericin, read-out: Activity (IC50 class)) [nM]	IC50 (Table 4, LPS 25 ng/mL + nigericin, read-out: Activity (IC50)) [nM]	IC50 [1] [nM]	IC50 [2] [nM]
O=C(Cn1nc(OC2CC3(C2)CC(F)(F)C3)c2cc(Br)ccc2c1=O)Nc1ncc(F)cn1 [Example 1, 2-[6-bromo-4-(2,2-difluorospiro[3.3]heptan-6-yl)oxy-1-oxophthalazin-2-yl]-N-(5-fluoropyrimidin-2-yl)acetamide]	–	–	< 1000	10
O=C(Cn1nc(OC2CC3(CC3)C2)c2cc(Br)ccc2c1=O)Nc1ncc(F)cn1 [Example 4, 2-(6-bromo-1-oxo-4-spiro[2.3]hexan-5-yloxyphthalazin-2-yl)-N-(5-fluoropyrimidin-2-yl)acetamide]	–	–	< 1000	33
COc1nn(CC(=O)Nc2ncc(F)cn2)c(=O)c2ccc(C3(F)CC3)cc12 [Example 11, 2-[6-(1-fluorocyclopropyl)-4-methoxy-1-oxophthalazin-2-yl]-N-(5-fluoropyrimidin-2-yl)acetamide]	–	–	< 1000	136
O=C(Cn1nc(OC2CC2)c2cc(C3(F)CC3)ccc2c1=O)Nc1ncc(F)cn1 [Example 12, 2-[4-cyclopropyloxy-6-(1-fluorocyclopropyl)-1-oxophthalazin-2-yl]-N-(5-fluoropyrimidin-2-yl)acetamide]	–	–	< 1000	152
O=C(Cn1nc(OC2CC3(C2)CC(F)(F)C3)c2cc(C3(F)CC3)ccc2c1=O)Nc1ncc(F)cn1 [Example 15, 2-[4-(2,2-difluorospiro[3.3]heptan-6-yl)oxy-6-(1-fluorocyclopropyl)-1-oxophthalazin-2-yl]-N-(5-fluoropyrimidin-2-yl)acetamide]	–	–	< 1000	19
C[C@]1(O)C[C@@H](NC(=O)Cn2nc(OC3CC4(C3)CC(F)(F)C4)c3cc(Br)ccc3c2=O)C1 [Example 16, 2-[6-bromo-4-(2,2-difluorospiro[3.3]heptan-6-yl)oxy-1-oxophthalazin-2-yl]-N-(cis-3-hydroxy-3-methylcyclobutyl)acetamide]	–	–	< 1000	137
C[C@]1(O)C[C@@H](NC(=O)Cn2nc(OC3CC3)c3cc(Br)ccc3c2=O)C1 [Example 23, 2-(6-bromo-4-cyclopropyloxy-1-oxophthalazin-2-yl)-N-(cis-3-hydroxy-3-methylcyclobutyl)acetamide]	–	–	< 1000	312
COc1nn(CC(=O)N[C@H]2C[C@@](C)(O)C2)c(=O)c2ccc(Br)cc12 [Example 24, 2-(6-bromo-4-methoxy-1-oxophthalazin-2-yl)-N-(cis-3-hydroxy-3-methylcyclobutyl)acetamide]	–	–	< 1000	183
O=C(Cn1nc(OC2CC2)c2cc(Br)ccc2c1=O)Nc1nc2ccccn2n1 [Example 27, 2-(6-bromo-4-cyclopropyloxy-1-oxophthalazin-2-yl)-N-([1,2,4]triazolo[1,5-a]pyridin-2-yl)acetamide]	–	–	< 1000	235
O=C(Cn1nc(OC2CC2)c2cc(I)ccc2c1=O)Nc1ncc(F)cn1 [Example 28, 2-(4-cyclopropyloxy-6-iodo-1-oxophthalazin-2-yl)-N-(5-fluoropyrimidin-2-yl)acetamide]	–	–	< 1000	21
Cc1cnc(NC(=O)Cn2nc(OC3CC4(CC4)C3)c3cc(Br)ccc3c2=O)nc1 [Example 29, 2-(6-bromo-1-oxo-4-spiro[2.3]hexan-5-yloxyphthalazin-2-yl)-N-(5-methylpyrimidin-2-yl)acetamide]	–	–	< 1000	26
N#Cc1cnc(NC(=O)Cn2nc(OC3CC4(CC4)C3)c3cc(Br)ccc3c2=O)nc1 [Example 30, 2-(6-bromo-1-oxo-4-spiro[2.3]hexan-5-yloxyphthalazin-2-yl)-N-(5-cyanopyrimidin-2-yl)acetamide]	–	–	< 1000	50
O=C(Cn1nc(OC2CC3(CC3)C2)c2c(F)c(C3CC3)ccc2c1=O)Nc1ncc(F)cn1 [Example 31, 2-(6-cyclopropyl-5-fluoro-1-oxo-4-spiro[2.3]hexan-5-yloxyphthalazin-2-yl)-N-(5-fluoropyrimidin-2-yl)acetamide]	–	–	< 1000	66
COc1nn(CC(=O)Nc2ncc(F)cn2)c(=O)c2ccc(C3CC3)c(F)c12 [Example 32, 2-(6-cyclopropyl-5-fluoro-4-methoxy-1-oxophthalazin-2-yl)-N-(5-fluoropyrimidin-2-yl)acetamide]	–	–	< 1000	183
COc1nn(CC(=O)Nc2ncc(F)cn2)c(=O)c2ccc(C3CC3)c(OC)c12 [Example 33, 2-(6-cyclopropyl-4,5-dimethoxy-1-oxophthalazin-2-yl)-N-(5-fluoropyrimidin-2-yl)acetamide]	–	–	< 1000	625
O=C(Cn1nc(OC2CC2)c2cc(Cl)ccc2c1=O)Nc1ncc(F)cn1 [Example 34, 2-(6-chloro-4-cyclopropyloxy-1-oxophthalazin-2-yl)-N-(5-fluoropyrimidin-2-yl)acetamide]	–	–	< 1000	408

Second part, the molecule after the results:

IC50 (Table 3, LPS 25 ng/mL + nigericin, read-out: Activity (IC50 class)) [nM]	IC50 (Table 4, LPS 25 ng/mL + nigericin, read-out: Activity (IC50)) [nM]	IC50 [1] [nM]	IC50 [2] [nM]	SMILES
< 1000	397	–	–	CC[C@@H]1CC1Oc1nn(CC(=O)Nc2ncc(F)cn2)c(=O)c2ccc(Br)cc12 (single isomer, unassigned) [Example 36, 2-[6-bromo-4-[cis-2-ethylcyclopropyl]oxy-1-oxophthalazin-2-yl]-N-(5-fluoropyrimidin-2-yl)acetamide]
–	–	< 1000	924	C[C@@H]1CC1Oc1nn(CC(=O)Nc2ncc(F)cn2)c(=O)c2ccc(Br)cc12 (stereo in doubt) [Example 52, 2-[6-bromo-4-[cis-2-methylcyclopropyl]oxy-1-oxophthalazin-2-yl]-N-(5-fluoropyrimidin-2-yl)acetamide]
–	–	< 1000	424	O=C(Cn1nc(OC2CC2)c2cc(OC(F)F)ccc2c1=O)Nc1ncc(F)cn1 [Example 37, 2-[4-cyclopropyloxy-6-(difluoromethoxy)-1-oxophthalazin-2-yl]-N-(5-fluoropyrimidin-2-yl)acetamide]
–	–	< 1000	444	Cc1cnc(NC(=O)Cn2nc(OC3CC3)c3cc(Br)ccc3c2=O)nn1 [Example 38, 2-(6-bromo-4-cyclopropyloxy-1-oxophthalazin-2-yl)-N-(6-methyl-1,2,4-triazin-3-yl)acetamide]
–	–	1000 to 10000	1120	O=C(Cn1nc(OC2CC2)c2cc(C3CCC3)ccc2c1=O)Nc1ncc(F)cn1 [Example 39, 2-(6-cyclobutyl-4-cyclopropyloxy-1-oxophthalazin-2-yl)-N-(5-fluoropyrimidin-2-yl)acetamide]
–	–	< 1000	17	O=C(Cn1nc(OC2CC3(CCC3)C2)c2cc(Br)ccc2c1=O)Nc1ncc(F)cn1 [Example 40, 2-(6-bromo-1-oxo-4-spiro[3.3]heptan-2-yloxyphthalazin-2-yl)-N-(5-fluoropyrimidin-2-yl)acetamide]
–	–	< 1000	52	O=C(Cn1nc(OC2CC3(CC3)C2)c2cc(Br)ccc2c1=O)Nc1ncc(Cl)cn1 [Example 41, 2-(6-bromo-1-oxo-4-spiro[2.3]hexan-5-yloxyphthalazin-2-yl)-N-(5-chloropyrimidin-2-yl)acetamide]
–	–	< 1000	360	O=C(Cn1nc(OC2CC(C(F)(F)F)C2)c2cc(Br)ccc2c1=O)Nc1ncc(F)cn1 (stereo not drawn) [Example 42, 2-[6-bromo-1-oxo-4-[3-(trifluoromethyl)cyclobutyl]oxyphthalazin-2-yl]-N-(5-fluoropyrimidin-2-yl)acetamide]
